ChEMBL document CHEMBL5390235, “Reading and erasing of histone crotonyllysine mimics by the AF9 YEATS domain and SIRT2 deacylase” (Bioorg Med Chem, 2023)
The source made the active and inactive calls. No cut-off for these calls is given here.

Assays:
[1] = target: T1, NAD-dependent protein deacetylase sirtuin-2 (Homo sapiens) (UniProt Q8IXJ6); assay: Induction of recombinant human SIRT2 (50 to 356 residues) deacetylase activity measured after 6 hrs in presence of NAD+ by MALDI-TOF-MS analysis; set-up: concentration or dose not given beside the values
T1 sequence (whole entry): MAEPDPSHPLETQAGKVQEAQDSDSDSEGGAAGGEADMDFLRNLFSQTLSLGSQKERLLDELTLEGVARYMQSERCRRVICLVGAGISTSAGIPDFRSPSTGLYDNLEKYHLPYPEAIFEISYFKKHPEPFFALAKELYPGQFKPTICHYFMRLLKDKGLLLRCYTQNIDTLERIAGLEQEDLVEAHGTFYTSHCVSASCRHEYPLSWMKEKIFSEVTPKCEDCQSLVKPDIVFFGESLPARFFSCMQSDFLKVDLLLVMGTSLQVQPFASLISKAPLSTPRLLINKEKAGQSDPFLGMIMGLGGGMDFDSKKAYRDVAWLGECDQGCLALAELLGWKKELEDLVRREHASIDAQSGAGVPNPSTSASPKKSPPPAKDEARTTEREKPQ

Protein AF-9 = target: T2, Protein AF-9 (Homo sapiens, UniProt P42568); assay: Binding affinity to N-terminal His-tagged recombinant human AF9 YEATS domain (1 to 138 residues) expressed in Escherichia coli 2(DE3)pLysS cells assessed as dissociation constant by ITC assay
T2 sequence (P42568 whole entry): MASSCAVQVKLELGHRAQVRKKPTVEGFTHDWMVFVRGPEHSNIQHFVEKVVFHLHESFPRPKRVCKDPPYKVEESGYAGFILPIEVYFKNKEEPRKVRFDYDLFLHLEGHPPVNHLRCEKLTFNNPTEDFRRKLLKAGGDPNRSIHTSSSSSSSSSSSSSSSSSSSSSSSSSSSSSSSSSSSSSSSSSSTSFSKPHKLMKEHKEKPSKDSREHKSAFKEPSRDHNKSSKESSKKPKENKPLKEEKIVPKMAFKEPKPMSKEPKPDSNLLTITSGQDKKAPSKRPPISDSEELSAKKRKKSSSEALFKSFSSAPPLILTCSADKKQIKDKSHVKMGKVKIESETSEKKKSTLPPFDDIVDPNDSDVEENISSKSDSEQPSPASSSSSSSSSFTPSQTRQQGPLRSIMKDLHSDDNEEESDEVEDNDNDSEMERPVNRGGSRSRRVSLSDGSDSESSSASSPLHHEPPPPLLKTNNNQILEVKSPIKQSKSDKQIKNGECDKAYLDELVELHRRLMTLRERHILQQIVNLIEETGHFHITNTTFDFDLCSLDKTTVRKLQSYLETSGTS

[2] = target: T1, NAD-dependent protein deacetylase sirtuin-2 (Homo sapiens); assay: Induction of recombinant human SIRT2 (50 to 356 residues) deacetylase activity measured after 24 hrs in presence of NAD+ by MALDI-TOF-MS analysis

SMILES | Activity ([1]; filed as activator) [%] | Kd (Protein AF-9) [µM] | Activity [2] | Activity [1] [%] | Activity ([2]; filed as activator) [%]
CC/C=C/C(=O)NCCCC[C@H](NC(=O)[C@H](CCCNC(=N)N)NC(=O)[C@H](C)NC(=O)[C@@H](NC(=O)[C@H](CCC(N)=O)NC(=O)[C@H](CCCCN)NC(=O)[C@@H](N)[C@@H](C)O)[C@@H](C)O)C(=O)N[C@@H](CO)C(=O)N[C@H](C(=O)NCC(=O)NCC(=O)N[C@@H](CCCCN)C(=O)N[C@@H](C)C(=O)O)[C@@H](C)O | 75 | 13.6 | – | – | –
C=CC(=O)NCCCC[C@H](NC(=O)[C@H](CCCNC(=N)N)NC(=O)[C@H](C)NC(=O)[C@@H](NC(=O)[C@H](CCC(N)=O)NC(=O)[C@H](CCCCN)NC(=O)[C@@H](N)[C@@H](C)O)[C@@H](C)O)C(=O)N[C@@H](CO)C(=O)N[C@H](C(=O)NCC(=O)NCC(=O)N[C@@H](CCCCN)C(=O)N[C@@H](C)C(=O)O)[C@@H](C)O | 55 | 13.7 | – | – | –
C[C@H](NC(=O)[C@H](CCCCN)NC(=O)CNC(=O)CNC(=O)[C@@H](NC(=O)[C@H](CO)NC(=O)[C@H](CCCCNC(=O)/C=C/c1ccccc1)NC(=O)[C@H](CCCNC(=N)N)NC(=O)[C@H](C)NC(=O)[C@@H](NC(=O)[C@H](CCC(N)=O)NC(=O)[C@H](CCCCN)NC(=O)[C@@H](N)[C@@H](C)O)[C@@H](C)O)[C@@H](C)O)C(=O)O | – | 5.1 | inactive | – | –
C/C=C/C(=O)NCCCC[C@H](NC(=O)[C@H](CCCNC(=N)N)NC(=O)[C@H](C)NC(=O)[C@@H](NC(=O)[C@H](CCC(N)=O)NC(=O)[C@H](CCCCN)NC(=O)[C@@H](N)[C@@H](C)O)[C@@H](C)O)C(=O)N[C@@H](CO)C(=O)N[C@H](C(=O)NCC(=O)NCC(=O)N[C@@H](CCCCN)C(=O)N[C@@H](C)C(=O)O)[C@@H](C)O | 60 | 7.8 | – | – | –
CC#CC(=O)NCCCC[C@H](NC(=O)[C@H](CCCNC(=N)N)NC(=O)[C@H](C)NC(=O)[C@@H](NC(=O)[C@H](CCC(N)=O)NC(=O)[C@H](CCCCN)NC(=O)[C@@H](N)[C@@H](C)O)[C@@H](C)O)C(=O)N[C@@H](CO)C(=O)N[C@H](C(=O)NCC(=O)NCC(=O)N[C@@H](CCCCN)C(=O)N[C@@H](C)C(=O)O)[C@@H](C)O | – | 20.5 | – | 30 | 50
C/C=C(\C)C(=O)NCCCC[C@H](NC(=O)[C@H](CCCNC(=N)N)NC(=O)[C@H](C)NC(=O)[C@@H](NC(=O)[C@H](CCC(N)=O)NC(=O)[C@H](CCCCN)NC(=O)[C@@H](N)[C@@H](C)O)[C@@H](C)O)C(=O)N[C@@H](CO)C(=O)N[C@H](C(=O)NCC(=O)NCC(=O)N[C@@H](CCCCN)C(=O)N[C@@H](C)C(=O)O)[C@@H](C)O | – | 46.5 | – | 39 | –
CC(C)=CC(=O)NCCCC[C@H](NC(=O)[C@H](CCCNC(=N)N)NC(=O)[C@H](C)NC(=O)[C@@H](NC(=O)[C@H](CCC(N)=O)NC(=O)[C@H](CCCCN)NC(=O)[C@@H](N)[C@@H](C)O)[C@@H](C)O)C(=O)N[C@@H](CO)C(=O)N[C@H](C(=O)NCC(=O)NCC(=O)N[C@@H](CCCCN)C(=O)N[C@@H](C)C(=O)O)[C@@H](C)O | – | 159 | 12% | 2 | –
C[C@H](NC(=O)[C@H](CCCCN)NC(=O)CNC(=O)CNC(=O)[C@@H](NC(=O)[C@H](CO)NC(=O)[C@H](CCCCNC(=O)/C=C/C(F)(F)F)NC(=O)[C@H](CCCNC(=N)N)NC(=O)[C@H](C)NC(=O)[C@@H](NC(=O)[C@H](CCC(N)=O)NC(=O)[C@H](CCCCN)NC(=O)[C@@H](N)[C@@H](C)O)[C@@H](C)O)[C@@H](C)O)C(=O)O | – | 48.5 | inactive | – | –
